# Assay results reported in US6858718B1, “Hydrogen production” (Melis Energy, priority 2001, dated 2005).
# “Also recorded” adds a separate entry of the source. Read-outs that look alike come from different tables or passages of the source.
# B1: C. reinhardtii iron hydrogenase: Fe-hydrogenase HydA from Chlamydomonas reinhardtii, mature polypeptide of 441 amino acids, SEQ. ID. NO. 5 precursor (protein)
# chain: AAPAAEAPLSHVQQALAELAKPKDDPTRKHVCVQVAPAVRVAIAETLGLAPGATTPKQLAEGLRRLGFDEVFDTLFGADLTIMEEGSELLHRLTEHLEAHPHSDEPLPMFTSCCPGWIAMLEKSYPDLIPYVSSCKSPQMMLAAMVKSYLAEKKGIAPKDMVMVSIMPCTRKQSEADRDWFCVDADPTLRQLDHVITTVELGNIFKERGINLAELPEGEWDNPMGVGSGAGVLFGTTGGVMEAALRTAYELFTGTPLPRLSLSEVRGMDGIKETNITMVPAPGSKFEELLKHRAAARAEAAAHGTPGPLAWDGGAGFTSEDGRGGITLRVAVANGLGNAKKLITKMQAGEAKYDFVEIMACPAGCVGGGGQPRSTDKAITQKRQAALYNLDEKSTLRRSHENPSIRELYDTYLGEPLGHKAHELLHTHYVAGGVEEKDEKK
# B2: S. obliquus iron hydrogenase: monomeric iron hydrogenase (HydA) of 44.5 kDa from Scenedesmus obliquus, SEQ. ID. NO. 4; recombinant form expressed in E. coli (protein, listed as Scenedesmus obliquus)
# chain: MPEWQPGGRYAVSVRPPVNRRAVVAAERRRLVVRAAGPTAECDCPPAPAPKAPHWQQTLDELAKPKEQRKVMIAQIAPAVRVAIAETMGLNPGDVTVGQMVTGLRMLGFDYVFDTLFGADLTIMEEGTELLHRLQDHLEQHPNKEEPLPMFTSCCPGWVAMVEKSNPELIPYLSSCKSPQMMLGAVIKNYFAAEAGAKPEDICNVSVMPCVRKQGEADREWFNTTGAGGANVDHVMTTAELGKIFVERGIKLNDLQETPFDNPVGEGSGGVLFGTTGGVMEAALRTVYEVVTQKPLDRIVFEDVRGLEGIKESTLHLTPGPTSPFKAFAGADGTGITLNIAVANGLGNAKKLIKQLAAGESKYDFIEVMACPGGCIGGGGQPRSADKQILQKRQAAMYDLDERAVIRRSHENPLIGALYEKFLGEPNGHKAHELLHTHYVAGGVPDEK
# Key:
# [1] = test system: iron hydrogenase from C. reinhardtii; experiment: Biochemical data of purified iron hydrogenase, hydrogen evolution assay with reduced methyl viologen; set-up: species or system Chlamydomonas reinhardtii
# Experimental: Hydrogenase activity of C. reinhardtii was determined in vitro with reduced methyl viologen using a gas chromatograph (Hewlett Packard 5890 Å Series II, column: molecular Sieve 5 Å, Mesh 60/80). The assay, containing in a final volume of 2 mL Pipes pH 6.8 (20 mM), Na2S2O4 (20 mM), MV (5 mM), was incubated anaerobically at 25° C. for 20 min. One unit is defined as he amount of hydrogenase evolving 1 μmol H2 per minute.
# Cells from a 40-L culture of C. reinhardtii were harvested by ultra filtration through an Amicon Ultrafiltration System DC 10 LA, with a hollow-fiber filter. The pellet was resuspended in 200 mL TAP medium. After anaerobic adaptation by flushing the solution with argon for 1 h in the dark, all steps were performed under strictly anaerobic conditions. The isolated Fe-hyrogenase was chemically cleaved by cyanogen brormide (CNBr). After separation of he CNBr fragments on an SDS polyacrylamide gel, four peptides were blotted onto a poly(vinylidene difluoride) membrane and were sequenced. Automated Edman degradation was performed with an Applied Biosystem model 477 A sequencer with online analysator model 120 A.
# To verify that the hydA ORF encodes the Fe-hydrogenase of C. reinhardtii, the enzyme was purified according to Happe and Naber (Eur. J. Biochem. 214,475-481 (1993)). The purified protein was able to evolve hydrogen, when incubated with reduced methyl viologen. After proteolytic digestion with cyanogen bromide, four bands of 4, 8, 9 and 11 kDa were detected after SDSIPAGE separation (data not shown). Two fragments (9 and 11 kDa) were sequenced by Edman degradation. […] The two fragment sequences are identical with he deduced amino-acid sequence of hydA (sequences are shadowed in gray in FIG. 6). The fragment corresponding to the cDNA region between 158 and 1636 bp of hydA was NdeI-BamHI cloned into the expression vector pET9a. The heterologous expressed protein was detected using antibodies raised against the Fe-hydrogenase. Both the purified Fe-hydrogenase of C. reinhardtii and the overexpressed enzyme had the same size (47.5 kDa). […] (ibid) who also detected no H2-production of the recombinant expressed Fe-hydrogenase from Desulfovibrio vulgaris in E. coli cells. An explanation might be the inability of E. coli to assemble the unique active site of the Fe-hydrogenases. It is known that E. coli has only three NiFe-hydrogenases with a different maturation system for the catalytic center.
# [2] = test system: iron hydrogenase from S. obliquus; experiment: as above; set-up: species or system Scenedesmus obliquus
# Experimental: (§1) The in vitro hydrogenase activity was measured by using a Hewlett Packard (HP 5890, Series II) gas chromatograph, equipped with a thermal conductivity detector and a molecular sieve column. Methyl viologen reduced by sodium dithionite was used as an electron donor. 1 unit is defined as the amount of hydrogenase evolving 1 mmol of molecular hydrogen (H2) per minute at 25° C.
# 40-liter cultures of Scenedesmus obliquus were grown heterotrophically. After centrifugation (10 min, 5000×g) the pellet we re-suspended in 200 ml TAP medium. The cells were anaerobically adapted by flushing the solution with argon for 1 hour in the dark. All further purification steps were performed in an anaerobic chamber (Coylab, Ann Arbor, Mich., USA). The cells were disrupted in a 50 mM Tris/HCl, buffer pH 8.0, 10 mM sodium dithionite by vortexing 3 min with glass beads. The further purification steps were made as described hereinbelow for the isolation of the Fe-hydrogenase of Chlamydomonas reinhardti. Automated Edman degradation of the N-terminal site of the protein was performed with an Applied Biosystem model 477A sequencer with online analysator model 120 A.
# The N-terminal sequence of HydA was determined by Edman degradation.
# [3] = test system: hydrogenase activity; experiment: In vivo hydrogenase activity (H2 evolution) of anaerobically adapted cells in the presence of inhibitors of the photosynthetic electron flow; format: cell-based, Scenedesmus obliquus; conditions: for Effect on H2 photoproduction / hydrogenase activity (in words): S. obliquus cells after anaerobic adaptation
# Experimental: (§2) The in vivo activity in the presence of different inhibitors of the photosynthetic electron flow was determined as described by Happe et al., in: European Journal of Biochemistry, 214, 475-481 (1993). After anaerobic adaptation, algal cells were harvested, diluted in fresh Tris acetate phosphate medium, and transferred to sealed tubes. Inhibitors were added 1 hour before H2 evolving activity was measured. Cells were broken by sonification. […] Ferrodoxin of both C. reinhardtii and S. obliquus was isolated according to the method of Schmitter et al. (Eur. J.l of Biochem., 172, pages 405-412 (1988)).
# Hydrogenase activity was determined in intact and broken cells after anaerobic adaptation. […] This rate corresponds to 85% of the oxygen evolution measure with intact Scenedesmus cells.
# In S. obliquus, the hydrogen evolution is linked to the photosynthetic electron transport chain through PSI. […] With reference to Table II, after anaerobic adaptation, cells were harvested, diluted in fresh, TAP medium, and incubated with inhibitors as described herein. α-PetF-antibody was raised against spinach ferredoxin. In Table II, DCMU=3-(3,4-dichlorophenyl)-1,1-dimethylurea; DBMIB=2,5-dibromo-3-methyl-6 isopropyl-p-benzochinone; Sulfo-DSPD=sulfodisalicylidinepropanediamin; DCPIP=2,6-dichlorophenolindophenol. The electron transport from PSI to ferredoxin was inhibited using the artificial electron acceptor DCPIP. In this reaction, DCPIP is reduced instead of ferredoxin and electron transfer to hydrogenase is interrupted.
# [4] = test system: H2-evolution; conditions: C. reinhardtii, stated as known; cited from earlier work
# [5] = test system: purified S. obliquus hydrogenase; experiment: Electron transfer properties of electron donors measured in vitro with dithionite as reducing reagent; format: biochemical, Scenedesmus obliquus; conditions: for H2-evolving activities: ferredoxin as electron donor, dithionite as reducing reagent
# Experimental: as §1, §2
# The electron transfer properties of different plant-type ferredoxins were measured in vitro with dithionite as a reducing reagent. […] In this assay, H2-evolving activities of 420, 390 and 350 U/mg protein with S. obliquus, C. reinhardtii and spinach ferredoxin, respectively, were observed. […] In D. desulfuricans, the Fe-hydrogenase has been reported to catalyze both hydrogen production and uptake with low potential multiheme cytochromes such as cytochrome c3.
# [6] = Hydrogenase activity of lysate of induced E. coli cells expressing C. reinhardtii hydA; format: cell-based, Escherichia coli; conditions: lysate of the induced E. coli cells
# Experimental: The hydA gene, corresponding to amino acids 57-497, was amplified, confirmed by sequences analysis and cloned into corresponding sites of he pET9a expression vector (Promega). The constructed plasmid was then ransformed into E. coli strain BL21(DE3). After induction with 1 mM isopropyl-thio-β-D-galactoside, the cells were resuspended in lysis buffer. Crude extracts from C. reinhardtii were isolated by harvesting cells after indicated anaerobic adaptation times. The pellet was resuspended in solubilization buffer and incubated with vigorous vortexing at RT for 30 min. The protein extracts from C. reinhardtii and E. coli were separated by 12% SDS/PAGE and blotted onto a poly(vinylidenedifluoride) membrane. Affinity-purified antibodies were diluted 1:200 and used for Western blot analyses.
# To verify that the hydA ORF encodes the Fe-hydrogenase of C. reinhardtii, the enzyme was purified according to Happe and Naber (Eur. J. Biochem. 214,475-481 (1993)). […] After proteolytic digestion with cyanogen bromide, four bands of 4, 8, 9 and 11 kDa were detected after SDSIPAGE separation (data not shown). […] The heterologous expressed protein was detected using antibodies raised against the Fe-hydrogenase. […] (ibid) who also detected no H2-production of the recombinant expressed Fe-hydrogenase from Desulfovibrio vulgaris in E. coli cells. […]
# [7] = Hydrogenase activity of lysate of induced E. coli cells expressing S. obliquus hydA; format: cell-based, Escherichia coli
# [8] = broken cells, inhibitor 10^−5 M
# [9] = intact cells, inhibitor 10^−5 M, added 1 hour before measurement
# [10] = broken cells, inhibitor 10^−4 M
# [11] = methyl viologen, read-out: KM value (MV)
molecule,measurement,setting,value
[C-]#[O+] [CO],Inhibition of the enzyme (in words),[1],strongly inhibited
same,Inhibition of the enzyme (in words),[2],strongly inhibited
"CC1=C(Br)C(=O)C(C(C)C)=C(Br)C1=O [DBMIB, 2,5-dibromo-3-methyl-6 isopropyl-p-benzochinone]",Effect on H2 photoproduction / hydrogenase activity (in words),[3],inhibition of the H2-production
same,Hydrogenase activity,[3]; [8],0.006 Units/mg chlorophyll
same,Hydrogenase activity,[3]; [9],0.005 Units/mg chlorophyll
same,Effect on H2 photoproduction (in words),[4],no H2-evolution
"CN(C)C(=O)Nc1ccc(Cl)c(Cl)c1 [DCMU, 3-(3,4-dichlorophenyl)-1,1-dimethylurea]",Effect on H2 photoproduction / hydrogenase activity (in words),[3],still able to photoproduce hydrogen; also recorded: not influenced
same,Hydrogenase activity,[3]; [8],0.11 Units/mg chlorophyll
same,Hydrogenase activity,[3]; [9],0.10 Units/mg chlorophyll
same,Effect on H2 photoproduction (in words),[4],still able to photoproduce hydrogen
"O=C1C(Cl)=CC(=Nc2ccc(O)cc2)C=C1Cl [DCPIP, 2,6-dichlorophenolindophenol]",Hydrogenase activity,[3]; [10],0.003 Units/mg chlorophyll
"NC(=O)C1=CN([C@@H]2O[C@H](COP(=O)(O)OP(=O)(O)OC[C@H]3O[C@@H](n4cnc5c(N)ncnc54)[C@H](OP(=O)(O)O)[C@@H]3O)[C@@H](O)[C@H]2O)C=CC1 [NADPH, reference compound]",Hydrogen production with other possible electron donors (in words),"[5]; in vitro, purified S. obliquus hydrogenase",No hydrogen production
O=O [O2],Inhibition of the enzyme (in words),[1],strongly inhibited
same,Inhibition of the enzyme (in words),[2],strongly inhibited
same,Inhibition of the enzyme (in words),[2]; listed as oxygen,irreversibly inactivated
C. reinhardtii ferredoxin: plant-type [2Fe-2S] ferredoxin isolated from C. reinhardtii,H2-evolving activities,[5],390 U/mg protein
spinach ferredoxin: plant-type [2Fe-2S] ferredoxin of spinach,H2-evolving activities,[5],350 U/mg protein
sulfodisalicylidinepropanediamin [sulfo-DSPD],Effect on H2 photoproduction / hydrogenase activity (in words),[3],specifically blocked
same,Reduction of hydrogenase activity,"[3]; S. obliquus, Table II",up to 30 fold
same,Hydrogenase activity,[3]; [10],0.003 Units/mg chlorophyll
B1,Km,"[1]; ferredoxin, read-out: KM value (ferredoxin)",35 µM
same,Km,[1]; [11],830 µM
same,Specific activity,[1]; purified enzyme,935 U/mg protein
same,pI value,[1]; purified enzyme,5.3
same,Hydrogenase activity of lysate (in words),[6],No hydrogenase activity
B2,Km,[2]; [11],800 µM
same,Specific activity,[2]; purified enzyme,700 U/mg protein
same,pI value,[2]; purified enzyme,5.17
same,Hydrogenase activity of lysate (in words),[7],no hydrogenase activity
